Patent publication US20120264685A1 (priority 2009, published 2012)
Where a SMILES comes first, the peptide text is derived from it. [ ]: non-standard residue; d: D form. ξ: configuration not given here. ξαMeBip(2'-Et,4'-OMe) = CCc1cc(OC)ccc1-c1ccc(CC(C)(N)C(=O)O)cc1; ξBip(2'-Et-4'-OMe) = CCc1cc(OC)ccc1-c1ccc(CC(N)C(=O)O)cc1; ξαMe(hhPhe) = CC(N)(CCCc1ccccc1)C(=O)O; ξαMePhe(2-F) = CC(N)(Cc1ccccc1F)C(=O)O; ξαMeD = CC(N)(CC(=O)O)C(=O)O; ξαMeP = CC1(C(=O)O)CCCN1; ξαMeS = CC(N)(CO)C(=O)O

What was measured:
[1] = tested on: RIN5F (Rat Insulinoma) cells; assay: In vitro glucose-dependent insulin secretion (RIN5F cell assay); type: cell-based; conditions: 16.7-mM glucose load, n = 3, mean ± S.D.
Procedure: RIN5F (Rat Insulinoma) cells were cultured in RPMI 1640 medium supplemented with sodium pyruvate (1 mM) HEPES and Glucose (4.5 g/L) in a humidified incubator (5% CO2), at 37° C. After trypsinization, RIN5F cells were seeded at a concentration of 0.2×10^6 cells per well, in 12 well plates. The cells were grown overnight to 80% confluence and insulin secretion experiments were performed as follows (Montrose-Rafizadeh C., et al., Mol. Cell. Endo. 1997, 130, 109.; Wang, X., et al., Endocrinology 2001, 5, 1820).
The cells were washed once with PBS solution followed by 40 min. incubation in fresh Krebs-Ringer Balanced Buffer containing NaCl (115 mmol/L), KCl (4.7 mmol/L), CaCl2 (1.28 mmol/L), MgSO4.7H2O (1.2 mmol/L), KH2PO4 (1.2 mmol/L), NaHCO3 (10 mmol/L) and HEPES (25 mmol/L), containing Glucose (1.1 mM) and B.S.A (0.5%), pH 7.4. The buffer was replaced after 40 min. and the cells were incubated (37° C.) with the test peptidomimetics, at different concentration, for 30 min., both in the presence (16.7 mM) and absence (0 mM) of glucose load. The supernatant was collected and the insulin amount was measured by ultra sensitive Rat insulin ELISA kit (Crystal Chem, IL). The protein was estimated in the supernatant using Bicinchoninic Acid kit, according to the manufacturer's protocol (Sigma Aldrich, MO). The total insulin content obtained in Pico-gram (pg) was divided with the total protein (μg) in order to normalize for differences in cell density between wells.

[2] = molecular target: DPP IV enzyme (Homo sapiens, UniProt P27487); assay: Stability against DPP IV enzyme; type: in vitro ADME; conditions: 2 μM, 37° C., 24 h
Sequence of DPP IV enzyme (P27487 whole entry, species assumed, the tested form may be a part): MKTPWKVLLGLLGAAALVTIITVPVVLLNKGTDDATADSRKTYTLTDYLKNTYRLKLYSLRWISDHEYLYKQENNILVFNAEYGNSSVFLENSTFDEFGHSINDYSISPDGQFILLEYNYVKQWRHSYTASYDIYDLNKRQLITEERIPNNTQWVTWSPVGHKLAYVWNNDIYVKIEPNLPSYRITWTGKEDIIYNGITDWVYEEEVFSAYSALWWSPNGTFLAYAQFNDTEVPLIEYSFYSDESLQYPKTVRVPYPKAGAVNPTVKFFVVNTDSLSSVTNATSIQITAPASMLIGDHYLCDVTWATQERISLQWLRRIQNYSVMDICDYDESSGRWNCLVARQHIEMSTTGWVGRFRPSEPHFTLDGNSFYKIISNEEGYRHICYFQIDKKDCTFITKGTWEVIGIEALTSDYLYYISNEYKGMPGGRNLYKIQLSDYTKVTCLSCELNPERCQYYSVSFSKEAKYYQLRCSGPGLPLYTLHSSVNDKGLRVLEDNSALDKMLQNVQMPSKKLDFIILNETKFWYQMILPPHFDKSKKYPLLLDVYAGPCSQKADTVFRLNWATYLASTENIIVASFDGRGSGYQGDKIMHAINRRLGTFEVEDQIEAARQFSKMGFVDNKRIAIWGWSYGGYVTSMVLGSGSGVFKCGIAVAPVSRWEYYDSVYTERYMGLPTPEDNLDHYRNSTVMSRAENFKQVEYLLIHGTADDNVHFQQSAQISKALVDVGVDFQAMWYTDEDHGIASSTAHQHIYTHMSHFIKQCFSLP
Procedure: (§1) Different peptidomimetics (final concentration 2 μM) were incubated with either DPP IV (1:25 mU) or pooled human plasma (7.5 μL) or simulated gastric fluid (pH 1.5; composition HCl, NaCl and Pepsin) or simulated intestinal fluid (pH 7.5) or human liver microsomes, for 0, 2, 4, 6, 12 and 24 h (37° C.; 50 mM triethanolamine-HCl buffer; pH 7.8). […] Reactions were terminated by the addition of TFA/H2O ([…], 10% (v/v)). The reaction products were then applied to a Vydac C18 analytical column (4.6×250-mm) and the major degradation fragment separated from intact peptidomimetic. The column was equilibrated with TFA/H20, at a flow rate of 1 mL/min. Using 0.1% (v/v) TFA in 70% acetonitrile/H2O, the concentration of acetonitrile in the eluting solvent was raised from 0% to 28% over 10 min and from 28% to 42% over 30 min. The absorbance was monitored at 206 nm using UV detector and peaks were collected manually prior to ESI-MS analysis. Area under the curve was measured for test peptidomimetics and their metabolites and percentage degradation were calculated at each time point over a period of 24 h.

[3] = Stability in human plasma; type: in vitro ADME; conditions: 2 μM, 37° C.
Procedure: as §1

[4] = Stability in simulated gastric fluid; type: in vitro ADME; conditions: 2 μM, 37° C.; for % degradation in 24 h when incubated with simulated gastric fluid: pH 1.5, 24 h; for half-life: simulated gi fluid, pH 1.5, read-out: half-life (t1/2) in simulated gastric fluid
Procedure: (§2) Reactions were terminated by the addition of TFA/H2O ([…], 10% (v/v)). […] The column was equilibrated with TFA/H20, at a flow rate of 1 mL/min. […] The absorbance was monitored at 206 nm using UV detector and peaks were collected manually prior to ESI-MS analysis.

[5] = Stability in simulated intestinal fluid; type: in vitro ADME; conditions: 2 μM, 37° C.; for % degradation in 24 h when incubated with simulated intestinal fluid: pH 7.5, 24 h; for half-life: simulated gi fluid, pH 7.5, read-out: half-life (t1/2) in simulated intestinal fluid
Procedure: as §2

[6] = Stability in liver microsomes; type: in vitro ADME, human; conditions: 2 μM, 37° C.; for half-life: human, microsomes, read-out: half-life (t1/2) in liver microsomes
Procedure: as §2

[7] = tested on: male C57BL/6J mice; assay: Acute single dose 120-min time-course experiment, in vivo glucose reduction; design: unit not given here; conditions: n = 8, Mean ± SEM
Procedure: Acute single dose 120-min time-course experiments were carried out in male C57BL/6J or db/db mice, age 8-12 weeks, bred in-house. The animals were housed in groups of 6 animals per cage, for a week, in order to habituate them to vivarium conditions (25+4° C., 60-65% relative humidity, 12:12 h light: dark cycle, with lights on at 7.30 am). All the animal experiments were carried out according to the internationally valid guidelines following approval by the ‘Zydus Research Center animal ethical committee’.
[…] On the day of experiment, food was withdrawn from all the cages, water was given ad-libitum and were kept for overnight fasting. Vehicle (normal saline)/test/standard compounds were administered intraperitoneally (i.p.) or orally, on a body weight basis. Soon after the 0 min. blood collection from each animal, the subsequent blood collections were done at 30, 60 and 120 or upto 240 min., via retro-orbital route, under light ether anesthesia (Chen, D., et al., Diabetes Obesity Metabolism, 2005, 7, 307. Kim, J. G. et al., Diabetes, 2003, 52, 751).
The blood samples were centrifuged and the separated serum was immediately subjected for the glucose estimation. The serum for insulin estimation was stored at −70° C. until used for the insulin estimation. The glucose estimation was carried out with DPEC-GOD/POD method (Ranbaxy Fine Chemicals Limited, Diagnostic division, India), using Spectramax-190, in 96-microwell plate reader (Molecular devices Corporation, Sunnyvale, Calif.). […] The AUC and BCAUC obtained from graphs were analyzed for one way ANOVA, followed by Dunnett's post test, using Graph Pad prism software. Furthermore, the insulin estimation was carried out using rat/mouse insulin ELISA kit (Linco research, Missouri USA).

| Compound | Insulin secretion ([1]; 0.1 nM test compd.) [pg/µg/h] | Insulin secretion ([1]; 1 nM test compd.) [pg/µg/h] | Insulin secretion ([1]; 10 nM test compd.) [pg/µg/h] | % degradation in 24 h when incubated with DPP-IV enzyme [2] [%] | half-life (t1/2) in human plasma [3] | % degradation in 24 h when incubated with human plasma [3] [%] | % degradation in 24 h when incubated with simulated gastric fluid [4] [%] | half-life [4] [min] | % degradation in 24 h when incubated with simulated intestinal fluid [5] [%] | half-life [5] [min] | % degradation in 24 h when incubated with liver microsomes [6] [%] | half-life [6] [min] | blood glucose level (in vivo glucose reduction) ([7]; 2 μM/kg, oral, 0 min) | blood glucose level (in vivo glucose reduction) ([7]; 2 μM/kg, oral, 30 min) | blood glucose level (in vivo glucose reduction) ([7]; 2 μM/kg, oral, 60 min) | blood glucose level (in vivo glucose reduction) ([7]; 2 μM/kg, oral, 120 min) | blood glucose level (in vivo glucose reduction) ([7]; 20 nM/kg, i.p, 0 min) | blood glucose level (in vivo glucose reduction) ([7]; 20 nM/kg, i.p, 30 min) | blood glucose level (in vivo glucose reduction) ([7]; 20 nM/kg, i.p, 60 min) | blood glucose level (in vivo glucose reduction) ([7]; 20 nM/kg, i.p, 120 min) |
| --- | --- | --- | --- | --- | --- | --- | --- | --- | --- | --- | --- | --- | --- | --- | --- | --- | --- | --- | --- | --- |
| CCc1cc(OC)ccc1-c1ccc(CC(NC(=O)C(C)(CC(=O)O)NC(=O)C(C)(CO)NC(=O)[C@@H](NC(=O)[C@H](Cc2ccccc2)NC(=O)[C@@H](NC(=O)CNC(=O)[C@H](CCC(=O)O)NC(=O)[C@H](C)NC(=O)[C@H](Cc2c[nH]cn2)NC(=O)[C@@H](N)C(C)C)[C@@H](C)O)[C@@H](C)O)C(=O)NC(C)(CCCc2ccccc2)C(N)=O)cc1 (stereo partly drawn) [compound 112] (H-VHAEGTFT[ξαMeS][ξαMeD][ξBip(2'-Et-4'-OMe)][ξαMe(hhPhe)]-NH2) | 12.3 ± 0.33 | 14.8 ± 0.16 | 28.1 ± 0.22 | 70 | (9) h | 71 | 100 | 30 | 100 | 30 | 100 | 30 |  |  |  |  |  |  |  |  |
| CCc1cc(OC)ccc1-c1ccc(CC(C)(NC(=O)[C@H](CC(=O)O)NC(=O)C(C)(CO)NC(=O)[C@@H](NC(=O)C(C)(Cc2ccccc2F)NC(=O)[C@@H](NC(=O)CNC(=O)[C@H](CCC(N)=O)NC(=O)[C@H](CO)NC(=O)[C@H](Cc2c[nH]cn2)NC(=O)[C@@H](N)C(C)C)[C@@H](C)O)[C@@H](C)O)C(=O)NC(C)(CCCc2ccccc2)C(N)=O)cc1 (stereo partly drawn) [compound 165] (H-VHSQGT[ξαMePhe(2-F)]T[ξαMeS]D[ξαMeBip(2'-Et,4'-OMe)][ξαMe(hhPhe)]-NH2) | 12.1 ± 0.42 | 14.6 ± 0.41 | 27.8 ± 0.46 | 72 | (9) h | 70 | 100 | 30 | 100 | 30 | 100 | 30 |  |  |  |  |  |  |  |  |
| CCc1cc(OC)ccc1-c1ccc(CC(C)(NC(=O)[C@H](CC(=O)O)NC(=O)[C@H](CO)NC(=O)[C@@H](NC(=O)[C@H](Cc2ccccc2)NC(=O)[C@@H](NC(=O)CNC(=O)[C@H](CCC(=O)O)NC(=O)C2(C)CCCN2C(=O)[C@H](Cc2c[nH]cn2)NC(=O)[C@@H](N)C(C)C)[C@@H](C)O)[C@@H](C)O)C(=O)NC(C)(CCCc2ccccc2)C(N)=O)cc1 (stereo partly drawn) [compound 140] (H-VH[ξαMeP]EGTFTSD[ξαMeBip(2'-Et,4'-OMe)][ξαMe(hhPhe)]-NH2) | 16.6 ± 0.41 | 22.9 ± 0.32 | 36.7 ± 0.11 | 86 | (9) h | 70 | 100 | 30 | 100 | 30 | 100 | 30 |  |  |  |  |  |  |  |  |
| CCc1cc(OC)ccc1-c1ccc(CC(NC(=O)[C@H](CC(=O)O)NC(=O)[C@H](CO)NC(=O)[C@@H](NC(=O)C(C)(Cc2c(F)cccc2F)NC(=O)[C@@H](NC(=O)CNC(=O)[C@H](CCC(=O)O)NC(=O)C(C)(C)NC(=O)[C@H](Cc2c[nH]cn2)NC(=O)[C@@H](N)C(C)C)[C@@H](C)O)[C@@H](C)O)C(=O)NC(C)(CCCc2ccccc2)C(N)=O)cc1 (single isomer, unassigned) [Seq. ID. No. 105, VH-Aib-EGT-(αMe-2,6-diFPhe)-TSD-Bip(OMe)-(αMe-APPA)] |  |  |  |  |  |  |  |  |  |  |  |  | 185 ± 2.1 | 115 ± 2.8 | 112 ± 4.9 | 111 ± 2.2 |  |  |  |  |
| CCc1cc(OC)ccc1-c1ccc(CC(C)(NC(=O)[C@H](CC(=O)O)NC(=O)C(C)(CO)NC(=O)[C@@H](NC(=O)C(C)(Cc2c(F)cccc2F)NC(=O)[C@@H](NC(=O)CNC(=O)[C@H](CCC(=O)O)NC(=O)C(C)(C)NC(=O)[C@H](Cc2c[nH]cn2)NC(=O)[C@@H](N)C(C)C)[C@@H](C)O)[C@@H](C)O)C(=O)NC(C)(CCCc2ccccc2)C(N)=O)cc1 (single isomer, unassigned) [Seq. ID. No. 179, VH-Aib-EGT-(αMe-2,6-diFPhe)-T-(αMe-Ser)-D-(αMe-Bip(OMe))-(αMe-APPA)] |  |  |  |  |  |  |  |  |  |  |  |  |  |  |  |  | 182 ± 2.1 | 121 ± 2.9 | 130 ± 3.1 | 138 ± 2.4 |
| CCc1cc(OC)ccc1-c1ccc(CC(C)(NC(=O)[C@H](CC(=O)O)NC(=O)C(C)(CO)NC(=O)[C@@H](NC(=O)C(C)(Cc2c(F)cccc2F)NC(=O)[C@@H](NC(=O)CNC(=O)[C@H](CCC(=O)O)NC(=O)[C@H](CO)NC(=O)[C@H](Cc2c[nH]cn2)NC(=O)[C@@H](N)C(C)C)[C@@H](C)O)[C@@H](C)O)C(=O)NC(C)(CCCc2ccccc2)C(N)=O)cc1 (single isomer, unassigned) [Seq. ID. No. 177, VHSEGT-(αMe-2,6-diFPhe)-T-(αMe-Ser)-D-(αMe-Bip(OMe))-(αMe-APPA)] |  |  |  |  |  |  |  |  |  |  |  |  | 183 ± 2.4 | 116 ± 3.1 | 112 ± 4.8 | 110 ± 2.5 |  |  |  |  |
